This is an account of results in PMC10243242 (European Journal of Clinical Pharmacology, 2023).

Values joined by “and” are separate entries in the source; they are usually repeats but may differ in a detail not shown here. Equal entries are not always repeated. Where two headings read alike, the source gives them in different places. Marks after values point to notes of the source that are not given here.

A short description of series [1]: Clinical drug-drug interaction study: plasma pharmacokinetics of dextromethorphan and dextrorphan with and without emvododstat. It counts as in vivo, human. To be noted: for CL/F: dextromethorphan; for Tmax: median (range). How it is done: (§1) On day 1, 18 healthy subjects (ages ≥ 18 and ≤ 65 years) received a single oral dose of 30 mg (capsule) dextromethorphan followed by a 4-day washout period. On day 5, subjects received a single oral dose of 250 mg emvododstat with food. Two hours later, subjects were administered a single oral dose of 30 mg modified-release dextromethorphan.
Blood samples (3 mL) for dextromethorphan and dextrorphan assessments were collected in K2EDTA vacutainers on day 1 (dextromethorphan alone) and on day 5 (dextromethorphan in combination with emvododstat) at the following timepoints: 0- (predose), 0.5-, 1-, 2-, 3-, 4-, 5-, 6-, 8-, 12-, 24-, and 48-h post dextromethorphan dose. Within 120 min of collection of blood samples, plasma was harvested by centrifuging blood samples at 2000 ± 20 g for 10 min at 4 °C. Upon harvesting, plasma was transferred to 2-mL polypropylene tubes and immediately stored at – 20 ± 5 °C until analysis.
Concentrations of dextromethorphan and dextrorphan in human plasma samples were determined using high-performance liquid chromatography with tandem mass […] (LC-MS/MS) detection. The bioanalytical method was validated, and its performance during bioanalysis was within the limits specified in current regulatory guidance over a calibration range of 50 to 50,000 pg/mL. Validation included testing such as linearity, sensitivity, specificity, selectivity, accuracy and precision, dilution effects, recovery, ruggedness, and stability.
Briefly, dextromethorphan and dextrorphan were extracted from 0.2 mL of human K2EDTA plasma using an automated liquid–liquid extraction followed by detection using LC-MS/MS. Stable isotope labeled internal standard (dextromethorphan-d3 and dextrorphan-d3) was used to track the analytes potential variability. To 0.2 mL of plasma, the internal standard (IS) working solution diluted in an ammonium formate/ammonium hydroxide buffer solution was added. The analytes and ISs were extracted using methyl-tert-butyl-ether (MTBE). A portion of the upper layer was transferred to a 96 deep well collection plate using an automated liquid handling system. After evaporation to dryness, the dry residue was reconstituted with the mobile phase and injected on a Sciex API 4000. The chromatographic separation was performed in isocratic mode using BetaSil CN column (dimensions 50 × 4.6 mm, 5 μm) and methanol/Milli-Q type water with ammonium formate and formic acid as mobile phase. The mass spectrometer detection was performed in positive ion mode with multiple reaction monitoring (MRM) transitions of 272.2 → 215.3, 275.2 → 215.3, 258.2 → 201.2, and 261.2 → 157.2 for dextromethorphan, dextromethorphan-d3, dextrorphan, and dextrorphan-d3, respectively.
Dextromethorphan and dextrorphan concentrations in study plasma samples were determined using duplicate plasma calibration curves of dextromethorphan and dextrorphan in each analytical batch. Additionally, duplicate quality control plasma samples spiked with dextromethorphan and dextrorphan at four concentration levels (low, 150 pg/mL; intermediate, 2000 pg/mL; medium, 25,000 pg/mL; and high, […]) were included in each analytical batch to assess the assay performance of the bioanalytical method. The accuracy (%bias) of QC samples in all analytical batches was within ± 4.6%, and precision (%coefficient of variation) was less than 6.2% for dextromethorphan and dextrorphan.
Non-compartmental pharmacokinetics were performed using Phoenix® WinNonlin (Version 8.1, Certara, Princeton, NJ, USA). Primary parameters consisted of AUC0-last, AUC0-inf, and Cmax. Secondary parameters included T1/2, Tmax, and CL/F (drug clearance). Bioavailability assessments were calculated using SAS software (Version 9.4, SAS, Cary, NC, USA) in accordance with current regulatory guidelines. A mixed linear model was fitted on log-transformed AUC0-inf, AUC0-t, and Cmax for both parent and metabolite. […]

A short description of series [2]: Safety and tolerability in healthy subjects. Type of series: in vivo, human. To be noted: single doses of dextromethorphan 30 mg with and without emvododstat 250 mg, 18 healthy subjects. From the text:
The safety and tolerability of dextromethorphan alone and with emvododstat were monitored.

The conditions of series [3]: rats dosed for up to 28 days; cited from earlier work.
The test system of series [4] is human bone marrow progenitor cells. To be noted: cultured human bone marrow progenitor cells; cited from earlier work.
In series [5] the target is T1, CYP2D6 (Homo sapiens, UniProt P10635). Briefly: Clinical drug-drug interaction study: in vivo CYP2D6 inhibition with dextromethorphan as probe substrate. Details: On day 1, 18 healthy subjects (ages ≥ 18 and ≤ 65 years) received a single oral dose of 30 mg (capsule) dextromethorphan; from tissue; host or cells: Healthy human subjects in vivo; The enzyme is their own. To be noted: single oral dose 250 mg emvododstat, dextromethorphan as sensitive probe substrate, healthy subjects. How it is done: as §1
Non-compartmental pharmacokinetics were performed using Phoenix® WinNonlin (Version 8.1, Certara, Princeton, NJ, USA). Primary parameters consisted of AUC0-last, AUC0-inf, and Cmax. Secondary parameters included T1/2, Tmax, and CL/F (drug clearance). Bioavailability assessments were calculated using SAS software (Version 9.4, SAS, Cary, NC, USA) in accordance with current regulatory guidelines. A mixed linear model was fitted on log-transformed AUC0-inf, AUC0-t, and Cmax for both parent and metabolite. The model included terms for treatment (combined emvododstat + dextromethorphan as test treatment versus dextromethorphan as reference treatment) and subject as a random factor. LSM (geometric least squares mean) for the treatment ratio and 90% confidence intervals (90% CI) were estimated from the model.

For series [6] the following is noted: dogs dosed for up to 28 days; cited from earlier work.
For series [7] the following is noted: humans; cited from earlier work.
Series [8] has as its target T1, CYP2D6. Details: method as in PMID 34846990. To be noted: cited from earlier work.
In series [9] the test system is SARS-CoV-2. Details: method as in PMID 33249060. The conditions noted are these: SARS-CoV-2019, cell culture, cited from earlier work.
Setting [10] is: dextromethorphan with emvododstat vs alone.
Setting [11] is: dextrorphan in plasma after 30 mg dextromethorphan alone, geometric mean (%CV).
Setting [12] is: dextrorphan in plasma after 30 mg dextromethorphan with 250 mg emvododstat, geometric mean (%CV).

T1 sequence (P10635 whole entry): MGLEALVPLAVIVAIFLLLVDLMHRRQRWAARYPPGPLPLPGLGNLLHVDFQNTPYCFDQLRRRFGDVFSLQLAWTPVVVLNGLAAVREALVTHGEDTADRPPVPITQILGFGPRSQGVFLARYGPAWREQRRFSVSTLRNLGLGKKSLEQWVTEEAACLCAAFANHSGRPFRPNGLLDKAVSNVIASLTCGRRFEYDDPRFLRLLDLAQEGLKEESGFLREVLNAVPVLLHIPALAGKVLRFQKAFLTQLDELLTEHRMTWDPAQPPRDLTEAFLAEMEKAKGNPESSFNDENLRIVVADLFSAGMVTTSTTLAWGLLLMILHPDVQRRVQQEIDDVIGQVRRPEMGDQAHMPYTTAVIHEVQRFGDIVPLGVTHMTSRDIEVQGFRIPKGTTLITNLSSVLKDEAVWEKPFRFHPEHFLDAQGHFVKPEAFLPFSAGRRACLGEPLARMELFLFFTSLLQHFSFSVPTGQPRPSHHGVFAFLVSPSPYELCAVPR

For `COc1ccc2c(c1)[C@]13CCCC[C@@H]1[C@H](C2)N(C)CC3` [Dextromethorphan, dextromethorphan, reference compound], the T1/2 in series [1] (dextromethorphan in plasma, 30 mg dextromethorphan with 250 mg emvododstat (day 5), geometric mean (%CV), n = 16) was 41.4^b (39.2) h; in [1] (dextromethorphan in plasma, 30 mg oral dextromethorphan alone (day 1), geometric mean (%CV)) it was 9.15 (25.2) h. Also, the “Increase in T1/2” value in series [1] (setting [10]) was 32 h. The “Reduction in clearance (CL/F)” value in series [1] (setting [10]) was determined as 94%. Also, the CL/F in series [1] (30 mg dextromethorphan with 250 mg emvododstat (day 5), geometric mean (%CV), n = 16) is 81.5^b (117.0) L/h; in series [1] (30 mg oral dextromethorphan alone (day 1), geometric mean (%CV)), 1367 (176.7) L/h. Moreover, the AUC(0-t) (commonly the area under the concentration-time curve up to a stated or last time point) in series [1] (human, oral, dextromethorphan in plasma, 30 mg dextromethorphan with 250 mg emvododstat (day 5), geometric mean (%CV)) is 157 ng·h/mL; in series [1] (human, dextromethorphan in plasma, 30 mg oral dextromethorphan alone (day 1), geometric mean (%CV)) it was 18.8 ng·h/mL. The AUC(0-inf) in series [1] (human, oral, dextromethorphan in plasma, 30 mg dextromethorphan with 250 mg emvododstat (day 5), geometric mean (%CV), n = 16, read-out: AUC0-inf) worked out at 362 ng·h/mL; in series [1] (human, dextromethorphan in plasma, 30 mg oral dextromethorphan alone (day 1), geometric mean (%CV), read-out: AUC0-inf) it was 21.6 ng·h/mL. The Tmax in series [1] (human, oral, dextromethorphan in plasma, 30 mg dextromethorphan with 250 mg emvododstat (day 5), read-out: Tmax) is 4 h; in [1] (human, dextromethorphan in plasma, 30 mg oral dextromethorphan alone (day 1), read-out: Tmax) it was 4 h. In addition, the half-life was 2460 min in [1] (human, plasma, oral, dextromethorphan in plasma, 30 mg dextromethorphan with 250 mg emvododstat (day 5), geometric mean (%CV), n = 16, read-out: T1/2 (converted)) and 540 min in series [1] (human, plasma, po, 30 mg, dextromethorphan in plasma, 30 mg oral dextromethorphan alone (day 1), geometric mean (%CV), read-out: T1/2 (converted)). The Cmax (commonly the peak of the concentration-time curve) in series [1] (human, dextromethorphan in plasma, 30 mg dextromethorphan 2 h after 250 mg oral emvododstat (day 5), geometric mean (%CV)) was determined as 5.85 ng/mL; in [1] (human, dextromethorphan in plasma, 30 mg oral dextromethorphan alone (day 1), healthy subjects, geometric mean (%CV)), 2.01 ng/mL. Also, the Drug-related adverse effects entry in series [2] was “mild and reversible”.

For the molecule `CN1CC[C@@]23CCCC[C@@H]2[C@@H]1Cc1ccc(O)cc13` [Dextrorphan, dextrorphan], the “Geometric mean metabolite/parent ratio for AUC (dextrorphan/dextromethorphan)” value in [1] (dextromethorphan in the presence of emvododstat) was 0.182 and 0.18; in series [1] (prior to administration of emvododstat), 1.69. Moreover, the AUC0-last is 31,852 (45.7) h·pg/mL in series [1] (setting [11]) and 29,382 (40.7) h·pg/mL in [1] (setting [12]). The AUC(0-inf) was 33,194 (43.8) h·pg/mL in series [1] (setting [11]); 30,875 (38.8) h·pg/mL in series [1] (setting [12]); 33.2 ng·h/mL in series [1] (human, plasma, oral, dextrorphan, 30 mg dextromethorphan capsules alone, read-out: AUC0-inf); 30.9 ng·h/mL in series [1] (human, plasma, oral, dextrorphan, dextromethorphan given concurrently with emvododstat, read-out: AUC0-inf). Besides, in [1] (dextrorphan in plasma after 30 mg dextromethorphan with 250 mg emvododstat), the Tmax is 4 (1–4) h. Moreover, the “Effect of CYP2D6 inhibition on peak exposure (Cmax)” value in series [1] (dextrorphan, Cmax LSM ratio just inside, 90% CIs outside of the no effect range 0.80 to 1.25) is given as “slightly affected”. The Cmax in series [1] (human, oral, dextrorphan in plasma after 30 mg dextromethorphan alone, geometric mean (%CV)) is 5 ng/mL; in series [1] (human, oral, dextrorphan in plasma after 30 mg dextromethorphan with 250 mg emvododstat, geometric mean (%CV)) it was 4.05 ng/mL. The half-life is 352 min in [1] (human, plasma, oral, 30 mg, dextrorphan in plasma after 30 mg dextromethorphan alone, geometric mean (%CV), read-out: T1/2 (converted)); 505 min in [1] (human, plasma, oral, dextrorphan in plasma after 30 mg dextromethorphan with 250 mg emvododstat, geometric mean (%CV), read-out: T1/2 (converted)); 360 to 480 min in series [1] (human, plasma, oral, dextrorphan, alone and in combination with emvododstat, read-out: Effective T1/2). Also, the AUC(0-t) was 31.9 ng·h/mL in series [1] (human, plasma, oral, dextrorphan, 30 mg dextromethorphan capsules alone) and 29.4 ng·h/mL in series [1] (human, plasma, oral, dextrorphan, dextromethorphan given concurrently with emvododstat).

For the molecule `COc1ccc(C2c3[nH]c4ccc(Cl)cc4c3CCN2C(=O)Oc2ccc(Cl)cc2)cc1` (stereo not shown) [Emvododstat, 4-chlorophenyl 6-chloro-1-[4-methoxyphenyl]-1,3,4,9-tetrahydro-2H-pyrido[3,4-b]indole-2-carboxylate], the Myelotoxicity entry in series [3], in series [6] and in series [7] was “no evidence of myelotoxicity” in each case. In addition, in series [4], the “Effect on viability or proliferation” value is “does not impair”. Also, the “In vivo CYP2D6 inhibitor classification” value in [5] was “strong inhibitor of CYP2D6 activity”. Also, the Ki – broadly, a measure of affinity in units of concentration, obtained from inhibition or displacement – in [8] (human liver microsomes, non-competitive inhibitor, read-out: Inhibition constant (Ki) for CYP2D6) is 38 nM and 37.7 nM. In series [8] (in vitro), the IC50 (commonly the concentration that inhibits the measured activity by half) is 17 nM. For the same molecule, the EC50 (commonly the midpoint of the concentration-response curve) in series [9] (read-out: EC50, decreased capsid protein) is 1.96 nM; in [9] (read-out: EC50, decreased viral titer), 2.6 nM. Further, the EC90 (commonly the concentration at which the effect reaches the 90% level) in series [9] (read-out: EC90, decreased viral titer) is 53 nM. For the same molecule, the Drug-related adverse effects entry in [2] was “mild and reversible”.

Take `O=C(Oc1ccc(Cl)cc1)N1CCc2c([nH]c3ccc(Cl)cc23)C1c1ccc(O)cc1` (stereo not shown) [O-desmethyl emvododstat]: the “Inhibition of CYP2D6 activity (in words)” value in series [8] (in vitro, compared with emvododstat) is “to a lesser extent”.
